According to patent EP0753513A2, “Optically active triazole derivative, process for producing the same, antifungal agent, and use thereof” (NIHON NOHYAKU CO., LTD., priority 1995, dated 1997):

Tests used:
Candida albicans IFO1270 [1] = assay: Growth inhibition of Candida albicans in Sabouraud's glucose broth (Test Example 1); format: cell-based; conditions: two days incubation at 37°C under shaking; for Growth inhibition ratio 0.1 µg/ml (%): 0.1 µg/ml test compound; for Growth inhibition ratio 10 µg/ml (%): 10 µg/ml test compound
Procedure: Sabouraud's glucose broth (9.8 ml) was inoculated with 0.1 ml of Candida albicans IFO1270 (1.0×10^6 cells/ml). Then 0.1 ml of a solution of each test compound dissolved with dimethylsulfoxide in an appropriate concentration was added to give concentrations of 10 µg/ml and 0.1 µg/ml. Two days after incubating at 37°C under shaking, the growth inhibition ratio was measured. […]

Candida albicans IFO1270 [2] = assay: Survival of mice inoculated with Candida albicans after oral treatment (Test Example 2); format: in vivo; conditions: ddY mice; 0.5% aqueous CMC solution containing 0.02% of test compound, orally, 5 ml/kg once a day for 4 days; survival ratio on final day (10 days following inoculation)
Procedure: ddY mice aged 6 weeks were divided into a control group having 10 mice and test groups each having 5 mice. After inoculating with 4 ml/kg of Candida albicans IFO1270 (2.5×10^7 cells/ml), which had been incubated on Sabouraud's glucose agar medium at 37°C for 2 hours, a 0.5% aqueous CMC solution (containing 10% of polyethylene glycol 400 and 0.1% of Tween 80) containing 0.02% of each test compound was orally administered to the mice in a dose of 5 ml/kg once a day for 4 days. The viable […] were counted for 10 days following the inoculation and the survival ratio on the final day was calculated. […]

Structure (SMILES) | Growth inhibition ratio 0.1 µg/ml (%) (Candida albicans IFO1270 [1]) | Growth inhibition ratio 10 µg/ml (%) (Candida albicans IFO1270 [1]) | Survival ratio (%) (Candida albicans IFO1270 [2])
C[C@@H](Cc1ccc(F)cc1)[C@](O)(Cn1cncn1)c1ccc(F)cc1F [Compound 1, (2R,3S)-2-(2,4-difluorophenyl)-4-(4-fluorophenyl)-3-methyl-1-(1H-1,2,4-triazol-1-yl)butan-2-ol] | 48 | 64 | 80
C[C@@H](Cc1ccc(F)cc1F)[C@](O)(Cn1cncn1)c1ccc(F)cc1F [Compound 2, (2R,3S)-2,4-bis(2,4-difluorophenyl)-3-methyl-1-(1H-1,2,4-triazol-1-yl)butan-2-ol] | 51 | 66 | 60
C[C@@H](Cc1ccc(C#N)cc1)[C@](O)(Cn1cncn1)c1ccc(F)cc1F [Compound 7, (2R,3S)-4-(4-cyanophenyl)-2-(2,4-difluorophenyl)-3-methyl-1-(1H-1,2,4-triazol-1-yl)butan-2-ol] | 55 | 70 | 100
CC(=O)N1CCN(c2ccc(OC[C@H]3CO[C@](Cn4ccnc4)(c4ccc(Cl)cc4Cl)O3)cc2)CC1 (relative stereo) [A, Cis-1-acetyl-4-[4-[[2-(2,4-dichlorophenyl)-2-(imidazol-1-ylmethyl)-1-3-oxolan-4-yl]methoxy]phenyl]piperazine, reference compound] | 47 | 59 | 40
